Experimental data published in patent US20070204353A1, “Transgenic animals and methods of monitoring hedgehog responding cells” (priority 2005, published 2007).

System: fast-dividing cells in the SVZ and SGZ
Assay: AraC infusion (mini-osmotic pump, one week) into brain of tamoxifen-marked Gli1-CreERT2;R26R mice; marker analysis of fate-mapped lacZ+ cells
Settings: for lacZ+;GFAP+/total lacZ+ ± SD (%): end of one-week 2% AraC infusion (0 day); for lacZ+;PSA-NCAM+/total lacZ+ ± SD (%): AraC 0 day; for Dlx2 expression: after AraC treatment
Excerpt: For AraC treatment, two days after TM treatment, a mini-osmotic pump (model 1007D, Duret) was implanted to infuse either saline or 2% AraC (Sigma) for one week as described (Doetsch, F. et al. (1999), Proc Natl Acad Sci USA 96: 11619-11624). Brains of mice that were sacrificed at the end of AraC or control treatment were designated as day 0 samples. For long-term survival experiments, the pump was removed one week after implantation and mice were later sacrificed at the indicated survival time. The second application of AraC was done as the first AraC treatment.
Mice were perfused (4% paraformaldehyde (PFA)), processed for frozen sections, and stained with X-gal as described in the Joyner lab website (http://saturn.med.nyu.edu/research/dg/joynerlab). For immunofluorescent staining, dissected brains were fixed in 4% PFA overnight at 4° C. and 50 μm vibratome (Leica) sections were obtained. Free-floating sections were stained overnight at 4° C. with goat anti-galactosidase (1:500; Biogenesis) and one of the following antibodies: mouse anti-GFAP (1:500), anti-PSA-NCAM (1:300), anti-NeuN (1:200; Chemicon), anti-CCI (1:20, Calbiochem), anti-CNPase (1:150), anti-MBP (1:200, SMI), guinea pig anti-Olig2 (1:20,000; from B. Novitch), rat anti-NG2/AN2 (1:10; from C. Klein), and rabbit anti-GABA (1:500, Sigma). Secondary antibodies for double labeling were donkey anti-species conjugated with Alexa 488, Alexa 555 (1:500; Molecular Probes), or FITC (1:200; Jackson ImmunoResearch). Fluorescent images were captured in 1.5-μm optical sections using a confocal laser-scanning microscope (LSM 510, Zeiss) and processed with Adobe Photoshop. Orthogonal analysis was performed to confirm co-expression of two markers. Cells co-expressing lacZ and one of the various markers were counted and divided by total number of lacZ expressing cells in the indicated region. At least three sections through the SVZ and DG were analyzed from one mouse. Data from at least three mice were pooled together to determine the average and standard deviation (SD). T-test was performed to calculate the p-value and determine whether the results between two time points were different with statistical significance.
Two days after TM treatment, AraC was infused for one week into the brain of Gli1-CreER^T2; R26R mice using a mini-osmotic pump.

SMILES: Nc1ccn([C@@H]2O[C@H](CO)[C@@H](O)[C@@H]2O)c(=O)n1 [AraC, cytosine arabinoside]
- lacZ+;GFAP+/total lacZ+ ± SD (%) (DG (SGZ)): 93.7±4.7%
- lacZ+;PSA-NCAM+/total lacZ+ ± SD (%) (DG): 2.1 ± 3.6%
- Dlx2 expression (RMS): greatly diminished
- Dlx2 expression (SVZ): abolished
- neuroblasts (PSA-NCAM immunoreactivity) in whole mounts of the lateral wall of the lateral ventricles (end of AraC treatment (day 0), n=3): almost completely depleted
- lacZ+;PSA-NCAM+/total lacZ+ ± SD (%) (ventral SVZ): 1.6 ± 2.9%
- lacZ+;GFAP+/total lacZ+ ± SD (%) (ventral SVZ): 92.2±1.0%
- labeled cells in the SVZ and DG versus control mice (within one week after AraC removal, n=5 vs control n=4): expanded more than control mice
